Measured values taken from US20240352021A1 (DANA-FARBER CANCER INSTITUTE, INC., priority 2021, published 2024).
Several values for one entry are separate records, joined by “and”; a condition that tells them apart may be missing. Equal values may be shown once. Read-outs that look alike come from different tables or passages of the source.

Columns and labels:
[1] = target: EGFR mutant L858R Ba/F3 cells (Homo sapiens, UniProt P00533, L858R, cells depend on it); assay: Ba/F3 cell proliferation (Cell Titer Glo), EGFR L858R; format: cell-based, murine; conditions: 72 hours
EGFR mutant L858R Ba/F3 cells, sequence (P00533 whole entry L858R, the tested form may be a part): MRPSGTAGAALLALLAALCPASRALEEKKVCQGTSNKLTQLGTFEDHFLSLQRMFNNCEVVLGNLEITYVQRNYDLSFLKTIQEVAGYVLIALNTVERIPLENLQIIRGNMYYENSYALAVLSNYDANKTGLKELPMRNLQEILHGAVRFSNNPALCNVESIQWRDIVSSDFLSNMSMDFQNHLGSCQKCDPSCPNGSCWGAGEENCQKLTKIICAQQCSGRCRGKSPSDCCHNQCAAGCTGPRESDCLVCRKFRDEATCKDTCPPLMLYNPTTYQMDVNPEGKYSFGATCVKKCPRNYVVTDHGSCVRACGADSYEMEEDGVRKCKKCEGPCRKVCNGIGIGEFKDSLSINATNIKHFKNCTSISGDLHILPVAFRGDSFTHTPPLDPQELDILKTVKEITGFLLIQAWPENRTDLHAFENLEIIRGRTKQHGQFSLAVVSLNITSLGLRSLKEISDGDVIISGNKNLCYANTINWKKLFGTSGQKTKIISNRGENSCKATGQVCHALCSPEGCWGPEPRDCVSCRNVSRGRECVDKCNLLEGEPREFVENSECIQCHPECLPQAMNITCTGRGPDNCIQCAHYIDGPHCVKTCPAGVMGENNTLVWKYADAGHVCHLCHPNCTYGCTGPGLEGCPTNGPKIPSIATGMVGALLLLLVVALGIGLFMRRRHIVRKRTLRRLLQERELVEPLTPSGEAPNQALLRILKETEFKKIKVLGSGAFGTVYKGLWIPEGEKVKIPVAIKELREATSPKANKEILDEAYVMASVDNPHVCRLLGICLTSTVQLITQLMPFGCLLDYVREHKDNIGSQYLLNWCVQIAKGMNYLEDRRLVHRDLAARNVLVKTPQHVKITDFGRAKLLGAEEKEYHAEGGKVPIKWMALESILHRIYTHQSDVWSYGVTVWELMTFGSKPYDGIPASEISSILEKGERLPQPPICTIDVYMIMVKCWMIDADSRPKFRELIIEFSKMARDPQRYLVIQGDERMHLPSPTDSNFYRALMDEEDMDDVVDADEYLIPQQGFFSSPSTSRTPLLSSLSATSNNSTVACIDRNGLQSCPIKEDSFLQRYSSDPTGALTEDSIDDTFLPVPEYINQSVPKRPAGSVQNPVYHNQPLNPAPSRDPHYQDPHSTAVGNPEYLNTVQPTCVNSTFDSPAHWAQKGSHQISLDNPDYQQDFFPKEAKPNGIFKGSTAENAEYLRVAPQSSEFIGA
Excerpt: (§1) The EGFR mutant L858R Ba/F3 cells have been previously described (Zhou, W., et al. Nature 462, 2009, 1070-1074). The EGFR C797S and C775S mutations were introduced via site directed mutagenesis using the Quick Change Site-Directed Mutagenesis kit into a vector containing EGFR L858R mutation (Stratagene; La Jolla, CA) according to the manufacturer's instructions. All constructs were confirmed by DNA sequencing. The constructs were then shuttled into the retroviral vector JP1540 by either using the Cre-recombination system (Agilent Technologies, Santa Clara, CA) or the In-fusion HD Cloning kit (Takara Bio USA, Inc.; Mountain view, CA). Ba/F3 cells were then infected with retrovirus per standard protocols, as described previously (Zhou, et al, Nature 2009). Stable clones were obtained by selection in puromycin (2 μg/ml). All BaF/3 mutant cells were maintained in RPMI 1640 (Cellgro; Mediatech Inc., Herndon, CA) supplemented with 10% FBS, 100 units/mL penicillin, 100 units/mL streptomycin.
(§2) Growth and inhibition of growth was assessed by the Cell Titer Glo assay (Promega, Madison, WI) and was performed according to the manufacturer's instructions. The Cell Titer Glo assay is a luminescence-based method used to determine the number of viable cells based on quantitation of the ATP present, which is directly proportional to the amount of metabolically active cells present. Ba/F3 cells of different EGFR genotypes were exposed to compounds for 72 hours and the number of cells used per experiment was determined empirically as has been previously established (Zhou, et al., Nature 2009). All experimental points were set up in triplicates in 384-well plates. […] The curves were fitted using a non-linear regression model with a sigmoidal dose response.
(§3) Ba/F3 cells assay data are provided below in Table 5 and Table 6. For inhibitory activity against EGFR mutants, the following designations are used: <0.1 μM=A, 0.1 μM˜0.5 μM=B, 0.5 μM˜2.5 μM=C, ≥2.5 μM=D

[2] = target: EGFR L858R/C797S Ba/F3 cells (Homo sapiens, UniProt P00533, C797S/L858R, cells depend on it); assay: Ba/F3 cell proliferation (Cell Titer Glo), EGFR L858R/C797S; format: cell-based, murine; conditions: 72 hours
EGFR L858R/C797S Ba/F3 cells, sequence (P00533 whole entry C797S/L858R): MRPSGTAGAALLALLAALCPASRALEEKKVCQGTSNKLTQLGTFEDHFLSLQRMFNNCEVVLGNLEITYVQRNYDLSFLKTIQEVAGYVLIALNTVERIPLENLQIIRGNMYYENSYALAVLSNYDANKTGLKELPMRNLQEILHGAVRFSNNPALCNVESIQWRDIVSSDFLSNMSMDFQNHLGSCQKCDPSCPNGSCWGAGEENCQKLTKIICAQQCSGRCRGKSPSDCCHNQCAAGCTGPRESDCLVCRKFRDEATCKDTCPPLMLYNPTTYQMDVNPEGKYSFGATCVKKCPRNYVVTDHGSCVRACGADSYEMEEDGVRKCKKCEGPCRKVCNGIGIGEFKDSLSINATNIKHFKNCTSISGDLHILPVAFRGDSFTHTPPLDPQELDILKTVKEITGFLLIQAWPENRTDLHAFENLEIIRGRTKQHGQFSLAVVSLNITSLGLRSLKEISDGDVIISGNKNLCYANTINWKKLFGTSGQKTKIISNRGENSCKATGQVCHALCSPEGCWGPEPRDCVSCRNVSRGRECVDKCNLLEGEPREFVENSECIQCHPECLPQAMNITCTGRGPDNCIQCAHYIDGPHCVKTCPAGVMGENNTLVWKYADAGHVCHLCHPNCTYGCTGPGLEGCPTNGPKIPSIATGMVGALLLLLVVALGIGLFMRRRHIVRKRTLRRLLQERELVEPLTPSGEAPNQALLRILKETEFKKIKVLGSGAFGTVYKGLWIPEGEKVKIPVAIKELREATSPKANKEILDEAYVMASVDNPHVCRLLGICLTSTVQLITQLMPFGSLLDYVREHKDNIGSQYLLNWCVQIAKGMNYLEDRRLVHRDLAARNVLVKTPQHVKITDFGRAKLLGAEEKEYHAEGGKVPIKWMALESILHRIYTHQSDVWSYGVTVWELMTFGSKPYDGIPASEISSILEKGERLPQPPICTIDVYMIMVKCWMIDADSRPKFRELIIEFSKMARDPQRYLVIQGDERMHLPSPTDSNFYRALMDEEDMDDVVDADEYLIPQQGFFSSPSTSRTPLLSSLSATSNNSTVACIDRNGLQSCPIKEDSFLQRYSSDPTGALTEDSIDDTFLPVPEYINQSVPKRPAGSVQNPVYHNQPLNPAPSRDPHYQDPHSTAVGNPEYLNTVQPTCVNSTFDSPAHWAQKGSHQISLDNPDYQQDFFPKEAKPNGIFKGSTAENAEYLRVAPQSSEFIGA
Excerpt: as §1, §2, §3

Row | GI50 ([1]; Table 5, read-out: L858R BaF3) [nM] | GI50 ([2]; Table 5) [nM] | GI50 ([1]; Table 6, read-out: L858R BaF3) [nM] | GI50 ([2]; Table 6) | SMILES
1 | 100 to 500 | 500 to 2500 | – | – | C=CC(=O)Nc1c(F)cccc1CN1Cc2cnc(Nc3ccc(N4CCN(C)CC4)cc3)nc2N(C)C1=O [Compound 019]
2 | 500 to 2500 | ≥ 2500 | – | – | C=CC(=O)Nc1cccc(CN2Cc3cnc(Nc4ccc(N5CCN(C)CC5)cc4)nc3N(C)C2=O)c1 [Compound 036]
3 | – | – | ≥ 2500 | ≥ 2500 nM | C=CC(=O)Nc1cn(C)nc1CN1Cc2cnc(Nc3ccc(N4CCN(C)CC4)cc3)nc2N(C)C1=O [Compound 046]
4 | – | – | 100 to 500 | 100 to 500 nM | C=CC(=O)N1CC(N2Cc3cnc(Nc4ccc(N5CCN(C)CC5)cc4)nc3N(C)C2=O)c2ccccc21 (stereo not drawn) [Compound 047, 1-methyl-7-[4-(4-methylpiperazin-1-yl)anilino]-S-(1-prop-2-enoylindolin-3-yl)-4H-pyrimido[4,5-d]pyrimidin-2-one]
5 | – | – | < 100 | < 100 nM | C=CC(=O)N1CC[C@H](N2Cc3cnc(Nc4ccc(N5CCN(C)CC5)cc4)nc3N(C)C2=O)c2ccccc21 [Compound 048, 1-methyl-7-[4-(4-methylpiperazin-1-yl)anilino]-S-[(4S)-1-prop-2-enoyl-3,4-dihydro-2H-quinolin-4-yl]-4H-pyrimido[4,5-d]pyrimidin-2-one]
6 | – | – | < 100 | < 100 nM | C=CC(=O)N1CC[C@@H](N2Cc3cnc(Nc4ccc(N5CCN(C)CC5)cc4)nc3N(C)C2=O)c2ccccc21 [Compound 049, 1-methyl-7-[4-(4-methylpiperazin-1-yl)anilino]-S-[(4R)-1-prop-2-enoyl-3,4-dihydro-2H-quinolin-4-yl]-4H-pyrimido[4,5-d]pyrimidin-2-one]
7 | – | – | ≥ 2500 | ≥ 2500 nM | C=CC(=O)Nc1cccc2[nH]cc(CN3Cc4cnc(Nc5ccc(N6CCN(C)CC6)cc5)nc4N(C)C3=O)c12 [Compound 050]
8 | – | – | ≥ 2500 | ≥ 2500 nM | C=CC(=O)N1CCC(N2Cc3cnc(Nc4ccc(N5CCN(C)CC5)cc4)nc3N(C)C2=O)CC1 [Compound 054]
9 | – | – | < 100 | < 100 nM | C=CC(=O)N1CCC(N2Cc3cnc(Nc4ccc(N5CCN(C)CC5)nc4)nc3N(C)C2=O)c2ccccc21 (centres unmarked) [Compound 056]
10 | – | – | < 100 | < 100 nM | C=CC(=O)N1CCC(N2Cc3cnc(Nc4ccc(N5CCN(C)CC5)cc4)nc3N(C3CCOC3)C2=O)c2ccccc21 (centres unmarked) [Compound 058]
11 | – | – | < 100 | < 100 nM | C=CC(=O)N1CCC(N2Cc3cnc(Nc4cnn(C)c4)nc3N(C)C2=O)c2ccccc21 (centres unmarked) [Compound 061]
12 | – | – | < 100 | < 100 nM | C=CC(=O)N1CCC(N2Cc3cnc(Nc4cnn(CCN(C)C)c4)nc3N(C)C2=O)c2ccccc21 (centres unmarked) [Compound 062]
13 | – | – | < 100 | < 100 nM | C=CC(=O)N1CCC(N2Cc3cnc(Nc4cnn(CCO)c4)nc3N(C)C2=O)c2ccccc21 (centres unmarked) [Compound 063]
14 | – | – | < 100 | < 100 nM | C=C(F)C(=O)N1CCC(N2Cc3cnc(Nc4ccc(N5CCN(C)CC5)cc4)nc3N(C)C2=O)c2ccccc21 (centres unmarked) [Compound 064]
15 | – | – | < 100 | < 100 nM | C=CC(=O)N1CCC(N2Cc3cnc(Nc4ccc(C5CCN(C)CC5)cc4)nc3N(C)C2=O)c2ccccc21 (centres unmarked) [Compound 066]
16 | – | – | < 100 | < 100 nM | C=CC(=O)N1CCC(N2Cc3cnc(Nc4ccc(C5=CCN(C)CC5)cc4)nc3N(C)C2=O)c2ccccc21 (centres unmarked) [Compound 067]
17 | – | – | < 100 | < 100 nM | C=CC(=O)N1CCC(N2Cc3cnc(Nc4ccc(OCCN5CCCC5)cc4)nc3N(C)C2=O)c2ccccc21 (centres unmarked) [Compound 068]
18 | – | – | < 100 | < 100 nM | C=CC(=O)N1CCC(N2Cc3cnc(Nc4ccc(N5CCN(C)CC5)cn4)nc3N(C)C2=O)c2ccccc21 (centres unmarked) [Compound 069]
19 | – | – | < 100 | < 100 nM | C=CC(=O)N1CCC(N2Cc3cnc(Nc4ccc(CN5CCN(C)CC5)cn4)nc3N(C)C2=O)c2ccccc21 (centres unmarked) [Compound 070]
20 | – | – | < 100 | < 100 nM | C=CC(=O)N1CCC(N2Cc3cnc(Nc4ccc(N(C)CCN(C)C)cc4)nc3N(C)C2=O)c2ccccc21 (centres unmarked) [Compound 075]
21 | – | – | < 100 | < 100 nM | C=CC(=O)N1CCC(N2Cc3cnc(Nc4ccc(N(C)CCN(C)C)c(C(F)(F)F)c4)nc3N(C)C2=O)c2ccccc21 (centres unmarked) [Compound 076]
22 | – | – | < 100 | < 100 nM | C=CC(=O)N1CCC(N2Cc3cnc(Nc4ccc(CN5CCN(C)CC5)cc4)nc3N(C)C2=O)c2ccccc21 (centres unmarked) [Compound 078]
23 | – | – | < 100 | 100 to 500 nM and < 100 nM | C=CC(=O)N1CCC(N2Cc3cnc(Nc4ccc(F)c(C#N)c4)nc3N(C)C2=O)c2ccccc21 (centres unmarked) [Compound 082]

Second part, the compound before the results:

Row | SMILES | GI50 ([1]; Table 5, read-out: L858R BaF3) [nM] | GI50 ([2]; Table 5) [nM] | GI50 ([1]; Table 6, read-out: L858R BaF3) [nM] | GI50 ([2]; Table 6)
24 | C=CC(=O)Nc1ccccc1CN1Cc2cnc(Nc3ccc(N4CCN(C)CC4)cc3)nc2N(C)C1=O [Compound 001, N-(2-((1-methyl-7-((4-(4-methylpiperazin-1-yl)phenyl)amino)-2-oxo-1,4-dihydropyrimido[4,5-d]pyrimidin-S(2H)-yl)methyl)phenyl)acrylamide] | 100 to 500 | 100 to 500 | – | –
25 | C=CC(=O)N1CCC(N2Cc3cnc(Nc4ccc(N5CCN(C)CC5)cc4)nc3N(c3cccc(NC(C)=O)c3)C2=O)c2ccccc21 (centres unmarked) [Compound 051] | – | – | 100 to 500 | 500 to 2500 nM
26 | C=CC(=O)N1CCC(N2Cc3cnc(Nc4ccc(N5CCN(C)CC5)c(-c5cnn(C)c5)c4)nc3N(C)C2=O)c2ccccc21 (stereo not drawn) [Compound 052, 1-methyl-7-[4-(4-methylpiperazin-1-yl)-S-(1-methylpyrazol-4-yl)anilino]-S-(1-prop-2-enoyl-3,4-dihydro-2H-quinolin-4-yl)-4H-pyrimido[4,5-d]pyrimidin-2-one] | – | – | < 100 | 100 to 500 nM
27 | C=CC(=O)N1CC2(CC(N3Cc4cnc(Nc5ccc(N6CCN(C)CC6)cc5)nc4N(C)C3=O)C2)C1 [Compound 053] | – | – | ≥ 2500 | ≥ 2500 nM
28 | C=CC(=O)N1CCC(N2Cc3cnc(Nc4ccc(N5CCN(C)CC5)c(F)c4)nc3N(C)C2=O)c2ccccc21 (centres unmarked) [Compound 055] | – | – | < 100 | < 100 nM
29 | C=CC(=O)N1CCC(N2Cc3cnc(Nc4ccc(N5CCN(C)CC5)cc4)nc3N(C3CCCC3)C2=O)c2ccccc21 (stereo not drawn) [Compound 057, 1-cyclopentyl-7-[4-(4-methylpiperazin-1-yl)anilino]-S-(1-prop-2-enoyl-3,4-dihydro-2H-quinolin-4-yl)-4H-pyrimido[4,5-d]pyrimidin-2-one] | – | – | < 100 | < 100 nM
30 | C=CC(=O)N1CC2CC1CC2N1Cc2cnc(Nc3ccc(N4CCN(C)CC4)cc3)nc2N(C)C1=O (stereo not drawn) [Compound 059, 1-methyl-7-[4-(4-methylpiperazin-1-yl)anilino]-S-(2-prop-2-enoyl-2-azabicyclo[2.2.1]heptan-5-yl)-4H-pyrimido[4,5-d]pyrimidin-2-one] | – | – | ≥ 2500 | ≥ 2500 nM
31 | C=CC(=O)N1Cc2ccccc2C(N2Cc3cnc(Nc4ccc(N5CCN(C)CC5)cc4)nc3N(C)C2=O)C1 (centres unmarked) [Compound 060, 3-(2-acryloyl-1,2,3,4-tetrahydroisoquinolin-4-yl)-1-methyl-7-((4-(4-methylpiperazin-1-yl)phenyl)amino)-3,4-dihydropyrimido[4,5-d]pyrimidin-2(1H)-one] | – | – | ≥ 2500 | ≥ 2500 nM
32 | CN(C)C/C=C/C(=O)N1CCC(N2Cc3cnc(Nc4ccc(N5CCN(C)CC5)cc4)nc3N(C)C2=O)c2ccccc21 (centres unmarked) [Compound 065] | – | – | 500 to 2500 | 500 to 2500 nM
33 | C=CC(=O)N1CCC(N2Cc3cnc(Nc4ccc(N5CCN(C)CC5)c(C(F)(F)F)c4)nc3N(C)C2=O)c2ccccc21 (centres unmarked) [Compound 071] | – | – | < 100 | < 100 nM
34 | C=CC(=O)N1CCC(N2Cc3cnc(Nc4cc(F)c(N5CCN(C)CC5)c(F)c4)nc3N(C)C2=O)c2ccccc21 (centres unmarked) [Compound 072] | – | – | < 100 | < 100 nM
35 | C=CC(=O)N1CCC(N2Cc3cnc(Nc4cccc(N5CCN(C)CC5)c4)nc3N(C)C2=O)c2ccccc21 (centres unmarked) [Compound 073] | – | – | < 100 | < 100 nM
36 | C=CC(=O)N1CCC(N2Cc3cnc(Nc4ccc(N(C)C)cc4)nc3N(C)C2=O)c2ccccc21 (centres unmarked) [Compound 074] | – | – | < 100 | < 100 nM
37 | C=CC(=O)N1CCC(N2Cc3cnc(Nc4ccc(N5CCN(C)CC5)cc4Cl)nc3N(C)C2=O)c2ccccc21 (centres unmarked) [Compound 077] | – | – | < 100 | < 100 nM
38 | C=CC(=O)N1CCC(N2Cc3cnc(Nc4ccc(N5CCN(C)CC5)c(Cl)c4)nc3N(C)C2=O)c2ccccc21 (centres unmarked) [Compound 079] | – | – | < 100 | < 100 nM
39 | C=CC(=O)N1CCC(N2Cc3cnc(Nc4ccc5c(c4)CCN(C)C5)nc3N(C)C2=O)c2ccccc21 (centres unmarked) [Compound 080] | – | – | < 100 | < 100 nM
40 | C=CC(=O)N1CCC(N2Cc3cnc(Nc4cccc(OC(F)F)c4)nc3N(C)C2=O)c2ccccc21 (centres unmarked) [Compound 081] | – | – | < 100 | < 100 nM
